Assays:
thrombin mutant R173A = molecular target: T1, thrombin mutant R173A (Homo sapiens, UniProt P00734, R541A); assay: Inhibition of thrombin mutant R173A; assay type: biochemical; conditions: pH 7.4, 25 °C
T1 construct: a group of thrombin mutants containing replacement of either Arg or Lys present in exosite 2 to Ala
Protocol: (§1) Chromogenic substrate hydrolysis assay was used to measure potency of inhibition, as previously reported. The assay was performed using Flexstation III (Molecular Devices, Sunnyvale, CA) by monitoring substrate hydrolysis at 405 nm. For thrombin and its mutants, 180 μL of buffer (20 mM Tris-HCl, 100 mM NaCl, 2.5 mM CaCl2, 0.1% (polyethylene glycol) PEG 8000, pH 7.4) was added to each well followed by 5 μL of 240 nM thrombin and 10 μL of sulfated coumarin in DMSO to give 0.002 to 250 μM final concentration (or 10 μL of DMSO alone). After incubation for 10 min at 25 °C, 5 μL of 2 mM Spectrozyme TH was added to each well simultaneously and allowed to react for 60 seconds at 25 °C while simultaneously monitoring the reaction to obtain the rate of increase in A405. Identical experimental conditions were used for reactions in the presence of antithrombin, except for 100 nM of antithrombin added prior to the addition of the substrate.

thrombin mutant R93A = molecular target: T2, thrombin mutant R93A (Homo sapiens, UniProt P00734, R452A); assay: Inhibition of thrombin mutant R93A; assay type: biochemical
T2 construct: a group of thrombin mutants containing replacement of either Arg or Lys present in exosite 2 to Ala
Protocol: as §1

## O=c1oc2cc(OCCCCn3cc(COc4ccc(-c5c(-c6ccccc6)c6cc(Cl)cc(Cl)c6oc5=O)cc4)nn3)ccc2c(-c2ccccc2)c1-c1ccc(OS(=O)(=O)O)cc1 [3g]
Thrombin mutant R173A
  HS: 2.0
  IC50: 522 ± 90 nM
  ΔY: 36 ± 3%
Thrombin mutant R93A; R93A mutant
  increase of inhibition potency in comparison to recombinant wild-type thrombin: 2.3 fold
Thrombin mutant R93A; R93A, pH 7.4, 25 °C
  HS: 1.3
  IC50: 154 ± 20 nM
  ΔY: 51 ± 2%

From article PMC4823711, “Allosteric Partial Inhibition of Monomeric Proteases. Sulfated Coumarins Induce Regulation, not just Inhibition, of Thrombin” (Scientific Reports, 2016)
